Experimental data: US12116357B2, “Heteroaryl-triazole and heteroaryl-tetrazole compounds as pesticides” (Bayer Aktiengesellschaft, priority 2018, dated 2024)

Key:
Format in all cases: in vivo
[1] = test system: Myzus persicae; assay: Myzus persicae oral test; conditions: 120 h
Summary of the method: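 Mixed-population aphids feed through parafilm on compound solution (acetone concentrate diluted with water) combined with IPL41 insect medium (33%+15% sugar). Mortality (%) read after 5 days, 100% meaning all aphids killed.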

[2] = test system: Aedes aegypti strain MONHEIM; assay: Aedes aegypti test (surface treatment & contact assay); conditions: 24 hours after contact, read-out: efficacy (mortality); for mortality at 20 mg/m2: surface concentration 20 mg/m^2, 30 min exposure; for mortality at 4 mg/m2: surface concentration 4 mg/m^2, 30 min exposure
Summary of the method: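 Compound dissolved in acetone (2 mg/ml) with 2000 ppm rapeseed oil methyl ester, applied to glazed tile and acetone evaporated; adult mosquitoes exposed on the dried surface for 30 min. Percent mortality scored 24 h after contact.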

[3] = test system: Ctenocephalides felis; assay: Ctenocephalides felis oral test; conditions: 48 h, 100 ppm in cattle blood, after 2 days
Summary of the method: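 Adult unfed cat fleas (~20) fed through parafilm on cattle blood containing compound (DMSO concentrate diluted in blood); blood held at 37° C., fleas at room temperature. Mortality (%) scored after 2 days.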

[4] = test system: Nezara viridula; assay: Nezara viridula spray test; conditions: 96 h
Summary of the method: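 Barley plants infested with N. viridula larvae sprayed with compound in acetone/DMF diluted in water with 1000 ppm emulsifier at the desired concentration. Mortality (%) scored after 4 days; 100% means all bugs killed.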

[5] = test system: Phaedon cochleariae; assay: Phaedon cochleariae spray test; conditions: 168 h, after 7 days
Summary of the method: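 Chinese cabbage leaf disks sprayed with compound in acetone/DMF diluted in water with 1000 ppm alkylarylpolyglycol ether emulsifier, then infested with mustard beetle larvae once dry. Mortality (%) scored after 7 days; 100% = all larvae killed, 0% = none.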

[6] = test system: Spodoptera frugiperda; assay: Spodoptera frugiperda spray test; conditions: 168 h
Summary of the method: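 Maize leaf sections were sprayed with compound formulated in acetone/DMF and diluted in water containing 1000 ppm emulsifier, then infested with fall armyworm larvae once dry. Percent mortality was scored after 7 days.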

[7] = test system: Ctenocephalides felis; assay: Ctenocephalides felis in-vitro contact test, adult cat flea; conditions: 5 μg/cm^2, after 48 hours, read-out: efficacy (fleas dead or moribund)
Summary of the method: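 Compound in acetone coated on glass tube walls (900 ppm solution, 5 μg/cm^2), solvent evaporated, then 5-10 adult fleas added and kept at room temperature. At 48 h, fleas put on a 45-50 °C plate for up to 5 min; those unable to climb scored dead or moribund, efficacy as % affected.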

[8] = test system: Musca domestica strain WHO-N; assay: Musca domestica test (surface treatment & contact assay); conditions: 24 hours after contact, read-out: efficacy (mortality); for mortality at 4 mg/m2: surface concentration 4 mg/m^2, 30 min exposure; for mortality at 20 mg/m2: surface concentration 20 mg/m^2, 30 min exposure
Summary of the method: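 Test compound dissolved in acetone (2 mg/ml) with 2000 ppm RME, applied to glazed tile and acetone evaporated. Adult flies placed on dried surface for 30 min exposure. Mortality (%) scored 24 h after contact; 100% means all insects dead.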

[9] = test system: Meloidogyne incognita; assay: Meloidogyne incognita test; conditions: 20 ppm, after 14 days
Experimental: • Solvent: 125.0 parts by weight of acetone
To produce a suitable preparation of active compound, 1 part by weight of active compound is mixed with the stated amount of solvent, and the concentrate is diluted with water to the desired concentration.
Vessels are filled with sand, a solution of the active ingredient, a suspension containing eggs and larvae of the southern root-knot nematode (Meloidogyne incognita) and salad seeds. The salad seeds germinate and the seedlings grow. Galls develop in the roots.
After 14 days the nematicidal activity is determined on the basis of the percentage of gall formation. 100% means no galls were found and 0% means the number of galls found on the roots of the treated plants was equal to that in untreated control plants.

[10] = test system: Nilaparvata lugens; assay: Nilaparvata lugens spray test; conditions: 96 h
Summary of the method: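 Rice plants were sprayed with compound formulated in acetone/dimethylformamide and diluted in water containing alkylarylpolyglycol ether emulsifier, then infested with brown planthoppers. Percent mortality was scored after 4 days, where 100% means all insects killed.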

[11] = test system: Tetranychus urticae (OP-Resistant); assay: Tetranychus urticae (OP-resistant) spray test; conditions: 144 h, after 6 days
Experimental: (§1) • Solvent: 78.0 parts by weight acetone • 1.5 parts by weight dimethylformamide • Emulsifier: alkylarylpolyglycol ether
(§2) To produce a suitable preparation of active compound, 1 part by weight of active compound is mixed with the stated amount of solvents and is diluted with water, containing an emulsifier concentration of 1000 ppm, to the desired concentration. Further test concentrations are prepared by dilution with emulsifier containing water.
French bean (Phaseolus vulgaris) leaf disks infected with all instars of the two spotted spidermite (Tetranychus urticae), are sprayed with a preparation of the active ingredient of the desired concentration.
After 6 days mortality in % is determined. 100% means all spider mites have been killed and 0% means none of the spider mites have been killed.

[12] = test system: Boophilus microplus; assay: Boophilus microplus injection test; conditions: Rhipicephalus microplus, 168 h, 20 μg/animal, egg deposition after 7 days, read-out: efficacy (infertile eggs)
Summary of the method: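 Engorged adult female ticks, five per test, received a 1 μl abdominal injection of compound in DMSO, then were kept in a climate chamber. Fertile egg deposition checked after 7 days, with unclear eggs held until hatching at about 42 days. Efficacy 100% means all eggs infertile, 0% all fertile.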

[13] = test system: cattle ticks (Boophilus microplus) strane Parhurst, SP-resistant; assay: Boophilus microplus dip test; conditions: 100 ppm, egg deposition after 7 days
Experimental: • Test animal: cattle ticks (Boophilus microplus) strane Parhurst, SP-resistant • Solvent: dimethyl sulfoxide
To produce a suitable preparation of active compound, 10 mg of active compound are dissolved in 0.5 ml solvent, and the concentrate is diluted with water to the desired concentration.
This compound solution is pipetted into tubes. 8-10 engorged, adult, female cattle ticks (Boophilus microplus) are placed in perforated tubes. These tubes are immersed in the aqueous compound solution until the ticks are completely moistened. After the liquid has drained off, the ticks are transferred to a filter paper in a plastic tray and stored in a climate chamber.
After 7 days egg deposition of fertile eggs is monitored. Eggs where fertility is not visible are stored in a climate chamber till hatching after about 42 days. An efficacy of 100% means all eggs are infertile; 0% means all eggs are fertile.

[14] = test system: Myzus persicae; assay: Myzus persicae spray test; conditions: 120 h
Experimental: as §1, §2
Chinese cabbage (Brassica pekinensis) leaf disks infected with all instars of the green peach aphid (Myzus persicae), are sprayed with a preparation of the active ingredient of the desired concentration.
After 5 days mortality in % is determined. 100% means all aphids have been killed and 0% means none of the aphids have been killed.

[15] = test system: Blattella germanica strain PAULINIA; assay: Blattella germanica test (surface treatment & contact assay); conditions: 24 hours after contact, read-out: efficacy (mortality); for mortality at 4 mg/m2: surface concentration 4 mg/m^2, 30 min exposure; for mortality at 20 mg/m2: surface concentration 20 mg/m^2, 30 min exposure
Experimental: (§3) • Solvent: Aceton+2000 ppm rapeseed oil methyl ester (RME)
In order to produce a sufficient, active ingredient containing solution it is necessary to solve the test compound in the solvent-mix (acetone at 2 mg/ml/RME 2000 ppm). This solution is pipetted onto a glazed tile and after evaporation of the acetone, adult animals of the species Blattella germanica strain […] are placed onto the dried surface. The exposure time is 30 minutes.
(§4) Mortality in percent (%) is determined 24 hours after contact of the insects to the treated surface. 100% mortality means that all tested insects are dead, whereas 0% means that no insect died.

[16] = test system: Culex quinquefasciatus strain P00; assay: Culex quinquefasciatus test (surface treatment & contact assay); conditions: 24 hours after contact, read-out: efficacy (mortality); for mortality at 4 mg/m2: surface concentration 4 mg/m^2, 30 min exposure; for mortality at 20 mg/m2: surface concentration 20 mg/m^2, 30 min exposure
Experimental: as §3
(§5) In order to produce a sufficient, active ingredient containing solution it is necessary to solve the test compound in the solvent-mix (acetone at 2 mg/ml/RME 2000 ppm). This solution is pipetted onto a glazed tile and after evaporation of the acetone, adult mosquitoes of the species Culex quinquefasciatus strain P00 are placed onto the dried surface. The exposure time is 30 minutes.
as §4

[17] = test system: Anopheles funestus strain FUMOZ-R; assay: Anopheles funestus test (surface treatment & contact assay); conditions: surface concentration 20 mg/m^2, 30 min exposure, 24 hours after contact, read-out: efficacy (mortality)
Experimental: as §3
as §5, with “Anopheles funestus” for “Culex quinquefasciatus”, “FUMOZ-R (Hunt et al., Med. Vet. Entomol. 2005 September; 19(3): 271-275)” for “P00”
as §4

| SMILES | mortality at 4 ppm [1] [%] | mortality at 20 ppm [1] [%] | mortality at 20 mg/m2 [2] [%] | mortality at 100 ppm [3] [%] | mortality at 500 g/ha [4] [%] | mortality at 500 g/ha [5] [%] | mortality at 500 g/ha [6] [%] | pest or weed control at 5 µg/cm2 [7] [%] | mortality at 4 mg/m2 [8] [%] | mortality at 20 mg/m2 [8] [%] | mortality at 500 g/ha [10] [%] | pest or weed control at 0.02 mg [12] [%] | mortality at 20 mg/m2 [15] [%] | other results |
| --- | --- | --- | --- | --- | --- | --- | --- | --- | --- | --- | --- | --- | --- | --- |
| CC(c1ncnn1-c1ncccn1)N(Cc1ccccn1)C(=O)c1cc(Cl)cc(C(F)(F)F)c1 (centres unmarked) [Example I-001, 3-Chloro-N-(pyridin-2-ylmethyl)-N-{1-[1-(pyrimidin-2-yl)-1H-1,2,4-triazol-5-yl]ethyl}-5-(trifluoromethyl)benzamide] | 100 | 100 | 90 to 100 | 100 | 100 | 100 | 100 | 100 | 90 to 100 | 90 to 100 | 90 | 100 | – | nematicidal activity (gall formation) [9]: 90%; mortality at 500 g/ha [11]: 95% |
| CC(c1ncnn1-c1ncccn1)N(C(=O)c1cc(Cl)cc(C(F)(F)F)c1)C1CC1 (centres unmarked) [Example I-002] | – | – | – | – | – | 83 | 100 | – | – | – | – | – | – | nematicidal activity (gall formation) [9]: 100% |
| CC(c1ncnn1-c1ncccn1)N(CCc1ccc(F)cc1)C(=O)c1cc(Cl)cc(C(F)(F)F)c1 (centres unmarked) [Example I-003] | 100 | 100 | 90 to 100 | 100 | 100 | 100 | 100 | – | 90 to 100 | 90 to 100 | 100 | 100 | – | efficacy (infertile eggs) [13]: 100% |
| CC(c1ncnn1-c1ncccn1)N(CC1CS(=O)(=O)C1)C(=O)c1cc(Cl)cc(C(F)(F)F)c1 (centres unmarked) [Example I-004] | 100 | 100 | 90 to 100 | 100 | 100 | 100 | 100 | – | 90 to 100 | 90 to 100 | 100 | 100 | 80 to 100 | mortality at 500 g/ha [14]: 100%; mortality at 4 mg/m2 [15]: 80 to 100% |
| CC(c1ncnn1-c1ncccn1)N(C(=O)c1cc(Cl)cc(C(F)(F)F)c1)C1COC1 (centres unmarked) [Example I-021] | 100 | 100 | 90 to 100 | 100 | 100 | 100 | 83 | 100 | – | 90 to 100 | – | 100 | 80 to 100 | mortality at 4 mg/m2 [2]: 80 to 100% |
| CC(c1ncnn1-c1ncccn1)N(CCS(C)(=O)=O)C(=O)c1cc(Cl)cc(C(F)(F)F)c1 (centres unmarked) [Example I-022] | 100 | 100 | 90 to 100 | 100 | – | 100 | 100 | 100 | 90 to 100 | 90 to 100 | – | 100 | 80 to 100 | mortality at 4 mg/m2 [15]: 80 to 100%; mortality at 4 mg/m2 [2]: 80 to 100%; mortality at 4 mg/m2 [16]: 85 to 100%; mortality at 20 mg/m2 [16]: 90 to 100% |
| CSCCN(C(=O)c1cc(Cl)cc(S(C)(=O)=O)c1)C(C)c1ncnn1-c1ccc(C#N)cn1 (centres unmarked) [Example I-035] | 100 | – | 90 to 100 | – | 100 | – | 100 | 100 | 90 to 100 | 90 to 100 | 90 | – | – | mortality at 500 g/ha [14]: 90%; mortality at 20 mg/m2 [17]: 85 to 100%; mortality at 4 mg/m2 [16]: 85 to 100%; mortality at 20 mg/m2 [16]: 90 to 100%; mortality at 500 g/ha [11]: 90% |
